Entries after “also recorded” stand apart in the source; their conditions may differ.
Assays:
[1] = test system: vascular malformations in the retina of CCM3-ECKO mice; test: Retina vascular lesions and vein diameter in CCM3-ECKO mice; format: in vivo, mouse
Text: (§1) The CCM3-flox/flox mice were generated at TaconicArtemis (Koeln, Germany). Two P-lox sequences were inserted that flank exons 4 and 5 of the murine CCM3 gene, to produce a loss-of-function mutation after excision by Ore recombinase. These CCM3-flox/flox mice were bred with Cdh5(PAC)-CreERT2 mice (Wang et al, 2010) for tamoxifen-inducible endothelial-cell-specific expression of Ore-recombinase and CCM3 gene recombination. The CCM3-flox/flox-Cdh5(PAC)-CreERT2 mice were further bred with BAT-gal mice (Maretto et al, 2003) to monitor the activation of b-catenin transcription signaling, and with Rosa 26-Enhanced […] Fluorescent Protein (EYFP) (Rosa26EYFP) mice (Srinivas et al, 2001) to monitor the expression of Ore-recombinase through the expression of EYFP. Tamoxifen (Sigma) was dissolved in corn oil and 10% ethanol (at 10 mg/ml), and then diluted 1:5 in corn oil before single intragastric administration to dpn 1-2 pups (35 mg/kg body weight), as described in^14. The control (wild-type) mice included CCM3-flox/flox-Cdh5(PAC)-CreERT2-BAT-gal mice treated with the vehicle used to dissolve the tamoxifen (corn oil plus 2% ethanol), and CCM3^+/+-Cdh5(PAC)-CreERT2-BAT-gal mice treated with tamoxifen.
Brains and eyes from mice pups were fixed in 3% paraformaldehyde immediately after dissection, and this fixing was continued overnight at 4° C. […]

CCM3-ECKO mice = test: Bleeding and mortality in drug-treated CCM3-ECKO mice; conditions: 30 mg/kg body weight intragastrically, daily
Procedure: Sulindac sulfide (Sigma) and sulindac sulfone (Sigma) were both dissolved in DMSO and further diluted 1:50 in corn oil. They were administered intragastrically, daily (30 mg/kg body weight), starting one day after the induction of recombination. The control mice were treated in parallel with vehicle only (corn oil plus 2% DMSO).

cyclooxygenase = conditions: reported; cited from earlier work
[2] = test system: b-catenin/Tcf4-dependent transcription; test: Top/Fop-Flash assay in CCM3-knockout endothelial line; format: cell-based, mouse; conditions: 48 h
Procedure: Drugs were added to confluent cells for 48 h before the indicated assays. The final concentrations used were: […] (all from Sigma-Aldrich). As all of these were dissolved in DMSO, control treatment (vehicle) was 0.1% DMSO final concentration, as for drug treatment. […] This was transfected into the endothelial cells […] using Lipofectamine 2000, according to the manufacturer instructions (Invitrogen). The pCMV plasmid for constitutive expression of b-gal was co-transfected ([…]), for normalization of luciferase expression over transfection efficiency. […] This was co-transfected with the b-gal plasmid, for normalization, as above. The Dual-Light Reporter Gene assay system (Applied Biosystems) for the combined detection of firefly luciferase and b-gal was used. The cell extraction and detection of chemiluminescence (Glomax 96 microplate luminometer; Promega) was carried out according to the manufacture instructions.

[3] = test system: b-catenin transcription activity in brain endothelial cells of CCM3-ECKO mice; test: Immunostaining of brain sections of CCM3-ECKO mice (b-gal reporter, progenitor/EndMT markers, VE-cadherin); format: in vivo, mouse; conditions: dpn 9
Text: as §1
Brains and eyes from mice pups were fixed in 3% paraformaldehyde immediately after dissection, and this fixing was continued overnight at 4° C. The retinas were dissected from the eyes just before staining as the whole mount. Fixed brains were embedded in 4% low-melting-point agarose and sectioned along the sagittal axis ([…]) using a vibratome (1000 Plus, The Vibratome Company, St. Louis, Mo., US).
Brain sections and retinas were stained as floating samples in 12-well and 96-well plates, respectively. They were blocked overnight at 4° C. in 1% fish-skin gelatin with 0.5% Triton X100 and 5% donkey serum in phosphate-buffered saline (PBS) containing 0.01% thimerosal. The samples were incubated overnight at 4° C. with the primary antibodies diluted in 1% fish-skin gelatin with 0.25% Triton X100 in PBS containing 0.01% thimerosal. Following washing with 0.1% Triton X100 in PBS, the secondary antibodies were added for 4 h at room temperature in 1% fish-skin gelatin with 0.25% Triton X100 in PBS containing 0.01% thimerosal. The incubation with DAPI was in PBS for 4 h, which was followed by several washes in PBS, post-fixating with 3% paraformaldehyde for 5 min at room temperature, and further washes in PBS. The brain sections were mounted in Vectashield with DAPI, and the coverslips fixed with nail varnish; the retinas were mounted in Prolong gold with DAPI.
(§2) The following antibodies were used: anti-Pecam (hamster; MAB1398Z, Millipore); anti-b-galactosidase (chicken; ab9361, Abcam); anti-VE-cadherin (rat monoclonal; 550548, BD Biosciences); anti-VE-cadherin (goat; sc-6458, Santa Cruz); anti-active-b-catenin (mouse monoclonal clone 8E7) dephosphorylated on Ser37 and Thr41, Millipore); anti-total-b-catenin (mouse monoclonal; Cell Signaling); anti-S100a4 (rabbit; 07-2274, Millipore); anti-Klf4 (goat; AF3158, R&D); anti-CD44 (rat; 553131, BD Biosciences); anti-ID1 (rabbit; sc-488, Santa Cruz); anti-aSMA (mouse monoclonal; F3777, Sigma); anti-GFP (rabbit; A-6455, Invitrogen); anti-podocalyxin (goat; AF1556, R&D); anti-phospho-histone H3 (rabbit; ab51776, Millipore); anti-CCM3 (rabbit; Eurogentec); anti-p-Smad1 (rabbit; 9516, Cell Signaling); anti-endomucin (rabbit; sc-65495, Santa Cruz); anti-α-tubulin (mouse monoclonal; T9026, Sigma).

[4] = test system: CCM3-knockout endothelial cell line; test: Immunostaining of CCM3-knockout endothelial cell line; format: cell-based, mouse
Procedure: In some experiments, endothelial cell lines from the lungs of CCM3-flox/flox mice (8-10 weeks old) were immortalized in culture through retroviral expression of polyoma middle T gene^60. […] These cells were then maintained in culture for up to 25 passages without detectable changes in the effects of this CCM3 ablation.
Drugs were added to confluent cells for 48 h before the indicated assays. The final concentrations used were: […] (all from Sigma-Aldrich). As all of these were dissolved in DMSO, control treatment (vehicle) was 0.1% DMSO final concentration, as for drug treatment.
Cells cultured in vitro were fixed and stained as described previously^46.
as §2

## CSc1ccc(/C=C2/C(C)=C(CC(=O)O)c3cc(F)ccc32)cc1 [sulindac sulfide, (Z)-5-Fluoro-2-methyl-1-[4-(methylthio)benzylidene]indene-3-acetic acid]
[1]; CCM3-ECKO mice, dpn 9
  vascular malformations in the retina: inhibited; also recorded: partially normalized
[1]; CCM3-ECKO, 30 measurements in 14 retinas, vehicle-ECKO 89.5±7.1 mm
  diameter of the most internal tract of the retinal veins (mean±SD): 35 ± 7.8 µm
CCM3-ECKO mice
  bleeding from vascular lesions or mortality versus vehicle-treated mice: did not observe either increased bleeding from vascular lesions or mortality
cyclooxygenase
  anti-cyclooxygenase activity: inhibits
[2]
  b-catenin transcriptional activity in Top/Fop Flash reporter assay: inhibited; also recorded: reduced
[3]; CCM3-ECKO BAT-gal pups
  expression of nuclear reporter gene b-gal in endothelial cells of brain vasculature: abolition; also recorded: inhibited
[3]; CCM3-ECKO pups
  VE-cadherin localization at endothelial cell-cell junctions in brain vessels: better localized at endothelial cell-cell junctions
[3]; CCM3-ECKO pups, immunostaining
  expression of b-catenin target genes / progenitor and EndMT markers (Klf4, S100a4, Id1) in brain endothelium: strongly reduces; also recorded: inhibited
[4]
  apical distribution of podocalyxin: re-establishes the correct apical distribution
[4]; 48 h
  VE-cadherin at cell-cell contacts: more localized to cell-cell contacts
  nuclear accumulation of active b-catenin / distribution to adherens junctions: restored the distribution of active b-catenin to the adherens junctions
  overexpression of progenitor/EndMT marker proteins (Klf4, S100a4, Id1, CD44): strongly reduced; also recorded: inhibited

Source: patent US20170027896A1, “METHODS AND COMPOSITIONS FOR THE TREATMENT OF VASCULAR MALFORMATION” (IFOM - FONDAZIONE ISTITUTO FIRC DI ONCOLOGIA MOLECOLARE, priority 2014, published 2017)
